Experimental data reported in patent EP0020230A2, “p-Biphenyl-4-methyl-2-butenoic acids, process for their preparation, pharmaceutical compositions containing them and their use” (PIERRE FABRE S.A., priority 1979, dated 1980).
Like-named read-outs stand apart in the source and are kept apart here.

What was measured:
[1] = acute oral toxicity (LD50, method of Miller and Tainter); conditions: in vivo, mouse about 20 g, read-out: DL 50 voie orale
Text: L'étude de la toxicité a été effectuée chez la souris conventionnelle pesant environ 20 grammes..
Les substances ont été administrées par voie orale, la DL 50 est calculée suivant la méthode de L.C. Miller et M.L. Tainter, Proc. Soc. Exper. Biol. Med., 1944, 57, 261.

[2] = system: injection de phényl benzoquinone; assay: analgesic activity, phenylbenzoquinone test (Siegmund et al.); assay type: in vivo
Description: L'activité antalgique a été étudiée selon Siegmund et Coll.
Les composés sont administrés par voie orale 30 minutes avant l'injection de phényl benzoquinone.

[3] = system: granulome aux pellets de coton; assay: cotton pellet granuloma (Meier, Schuler, Desaulles); assay type: in vivo; conditions: 120 h; dose from which a clear reduction is seen; results read after 5 days; read-out: réduction nette du poids du granulome à partir de
Description: Les résultats obtenus sur le granulome aux pellets de coton selon la technique de R. Meier, Schuler et Desaulles - Experientia 1950, 6, 469, permettent de mettre en évidence une réduction nette du poids du granulome à partir de 10 mg/kg pour le F 1920 et le F 2073.
Les résultats sont relevés au bout de 5 jours et aucune modification n'est observée, comparativement aux témoins, en ce qui concerne

[4] = system: oedème provoqué par injection de carragénine dans la patte du rat; assay: carrageenan-induced paw oedema (Winter, Risley, Nuss); assay type: in vivo; conditions: oral, suspension in tween-water, 2 hours before the test, read-out: ED 50 (dose diminuant de 50 % le volume de la patte)
Text: Les propriétés anti-inflammatoires ont été révélées par le test de l'oedème provoqué par injection de carragénine dans la patte du rat selon la technique de C. Winter, E. Risley, et G. Nuss. Proc. Soc. Exper. Biol. Med., 1962, 111, 544-547.
Les produits ont été administrés par voie orale en suspension dans le mélange tween-eau 2 heures avant l'expérimentation.

[5] = oral, 30 minutes before injection of phenylbenzoquinone, read-out: DE 50 (the source's name)

Row | Structure (SMILES) | LD50 [1] | ED50 [2, 5] | minimal effective dose [3] | ED50 [4] | ED50 ([2]; po, read-out: DE 50)
1 | CC(/C=C/c1ccc(-c2ccccc2)cc1)C(=O)O (stereo not drawn) [F 1920, acide trans p-biphényl-4, méthyl-2 buten-3 oïque] | 500 mg/kg | 10 mg/kg | ≥ 10 mg/kg | 25 mg/kg | 
2 | O=C(OCC(O)CO)c1ccccc1Nc1ccnc2cc(Cl)ccc12 (stereo not drawn) [Glafénine, reference compound] |  | 36 mg/kg |  |  | 
3 | CC(/C=C/c1ccc(-c2ccccc2F)cc1)C(=O)O (stereo not drawn) [Acide trans orthofluorophényl-4' phényl-4 méthyl-2 buten-3 oïque] | 1000 mg/kg | 5 mg/kg |  |  | 
4 | CC(=O)Oc1ccccc1C(=O)O [Acide acétyl salicylique, reference compound] |  |  |  |  | 100 mg/kg
5 | CC(/C=C/c1ccc(-c2ccccc2Cl)cc1)C(=O)O (stereo not drawn) [F 2073, acide trans orthochlorophényl-4' phényl-4 méthyl-2 buten-3 oïque] | 750 mg/kg | 7 mg/kg | ≥ 10 mg/kg | 15 mg/kg | 
